Laboratory results taken from patent US11840531B2, “CDK8/19 inhibitors” (JOINT STOCK COMPANY “BIOCAD”, priority 2018, dated 2023).

How the values were obtained:
[1] = General cytotoxicity on HepG2 cells; assay type: cell-based; conditions: human, 72 h incubation
Protocol: The CC50 values were determined in the test for General cytotoxicity On HepG2 cells (hepatocellular carcinoma, ATCC® HB-8065™). Cells per well were seeded in 96-well plates (Corning, #3599) at a concentration ≈20×10^3 cells in 100 μL of medium and incubated for 72 h with added compounds within the range of concentrations of 200 to 0.78 μM. Cell viability was assessed using the above method.

KG-1 cells = test: Antiproliferative activity, KG-1 cells (AlamarBlue); assay type: cell-based; conditions: Homo sapiens, KG-1, 120 h, 120 h incubation
Protocol: (§1) Antiproliferative activity of CDK8 inhibitors according to the present invention was measured in a cell-based test on continuous cell cultures MV4-11 (biphenotypic myelomonocytic leukemia, ATCC® CRL-9591™), KG-1 (acute myeloid leukemia, ATCC® CCL-246™) using a vital stain AlamarBlue (ThermoFisher, #DAL1100). The cells were grown in RPMI-1640 (PanEco, #C330p) medium with addition of 10% FBS (Gibco, #16140-071); washed and resuspended in culture medium with 10% FBS (Gibco, #16140-071) in 96-well culture plates (Corning, #3599) with ≈10×10^3 cells in […] of medium per well. The compounds in question were dissolved in DMSO and diluted with a medium with 10% FBS (Gibco, #16140-071) to a final concentration ranging from 0 to 100 μM. […] of diluted compounds were then added to each well (final DMSO concentration was less than 1%) and incubated under 5% CO2 atmosphere at 37° C. for 120 h. After incubating, 15 μL/well of AlamarBlue (ThermoFisher, #DAL1100) reagent was added, contents of plates were mixed in an orbital shaker (Biosan, Latvia) and further incubated for 3-5 h at 37° C. under 5% CO2 atmosphere. Number of living cells was estimated using a microplate spectrophotometer (Tecan Infinite M200Pro, Switzerland) measuring fluorescent signal at the excitation wavelength (λEx) of 540 nm and emission wavelength (λEm) of 590 nm.
(§2) IC50 values were calculated using Magellan 7.2 software (Tecan, Switzerland) approximating experimental points by four-parameter logistic model with the optimization by Levenberg-Marquardt (Table 6).

MV4-11 cells = test: Antiproliferative activity, MV4-11 cells (AlamarBlue); assay type: cell-based; conditions: Homo sapiens, 120 h incubation, read-out: MV-4-11 IC50
Protocol: as §1, §2

[2] = Permeability through Caco-2 cell monolayer; assay type: in vitro ADME; conditions: human; for Papp A→B at 2 h, 10 μM: Caco-2, A→B, pH 6.5/7.4, 2 hour incubation; for efflux ratio at 2 h, 10 μM: Caco-2, Papp B-A/Papp A-B
Protocol: Estimation of permeability through Caco-2 cell monolayer enables assessment of the ability of the substances to penetrate through biological membranes by means of both active and passive transport.
Intestinal epithelial cells Caco-2 were grown on filter inserts (pore size 0.4 jam, BD Falcon with High Density) for 21 days; monolayer integrity was then checked using Lucifer Yellow (Sigma-Aldrich, USA) according to the standard protocol. In A→B transfer (“intestinal lumen”-“blood stream” transfer), solutions of the test substances in buffer, pH 6.5 (HBSS, 10 mM HEPES, 15 mM glucose) at a concentration of 10 μM were added to the upper chamber; whereas the lower chamber was filled with buffer, pH 7.4 (HBSS, 10 mM HEPES, 15 mM Glucose, 1% BSA). In B→A transfer (“blood stream”-“intestinal lumen” transfer), the upper chamber was filled with buffer, pH 6.5, whereas the solutions of the test substances in buffer, pH 7.4, at a concentration of 10 μM were added to the lower chamber. A highly permeable substance propranolol was used as a control.
After 2 hour incubation at 37° C. under an atmosphere containing 5% CO2, the amounts of the test substances in the upper and lower chambers were measured by HPLC using an Agilent1200 HPLC system (Agilent, USA), proteins were preliminarily precipitated with acetonitrile. Chromatographic analysis was performed in a gradient elution regime with a flow rate of 1 mL/min. The peak areas corresponding to the compounds were detected on chromatograms. Based on the peak areas of a compound in the calibration standards, concentration of the compound in the initial solution and in the samples from upper chamber wells and lower chamber wells was measured.
Cellular permeability coefficient Papp was calculated by the formula: Papp=(Ca(t)*Va)/(Cd(0)*t*Area), where Papp is the effective permeability constant, m/s V is the volume of solution (0.8 ml in A→B test, 0.2 ml in B→A test), ml Area is the membrane surface area (0.33 cm^2), cm^2 t is the time of incubation (7200 sec), sec Cd(0) is the initial solution concentration, μM Ca(t) is the concentration of the solution after 2 hours (the concentration in the sample from the well of the lower chamber in A→B test; the concentration in the sample from the well of the top chamber in B→A test), μM
The value was calculated by the following formula: efflux=Papp B-A/Papp A-B, where Pape A-B-direct A→B test permeability value Papp B-A-reverse B→A test permeability value

[3] = Enzyme stability in human liver S9 fractions (Phase II); assay type: in vitro ADME; conditions: pH 7.4; 0.5 mg/mL pooled human liver S9 fractions, 10 μM compound, 37° C.; read-out: Enzyme stability Liver S9 fraction CLint
Protocol: Measuring of enzyme stability of the present compounds enabled estimation of their stability towards the action of Phase II biotransformation enzymes.
Enzyme degradation rate was measured by incubating the reaction mixture in a dry block thermostat at 37° C., said reaction mixture comprising 0.5 mg/mL of pooled human liver S9 fractions (XenoTech, USA, cat #H0610), 10 μM compound, 2 mM β-nicotinamide adenine dinucleotide (Carbosynth, UK, cat #NN10871) and 4 mM magnesium chloride in 0, 1 M sodium-phosphate buffer, pH=7, 4. The reaction was quenched with acetonitrile (100 μL of acetonitrile/100 μL of the reaction mixture). After quenching, the samples were centrifuged at 10000 rpm for 10 minutes. Supernatant fluid was tested by chromatographic technique using Agilent1200 (Agilent, USA). Chromatographic analysis was performed in a gradient elution regime with a flow rate of 1 mL/min A graph of the logarithm of substance's peak area as a function of time was made. The dependent factor of the line corresponded to the elimination rate constant K based on which the drug's half-life T½ and degradation rate CLint were calculated:
Based on the data obtained, candidates' enzyme stability in human liver S9 fractions was determined.

With `COCCn1cc(-c2ccc(-c3cnc(N)c4ncc(C(=O)NC5CC5)cc34)cc2)cn1` [Compound 3.48] the CC50 at 72 h [1] was 31800 nM, the IC50 (KG-1 cells) was 2.7 nM and the IC50 (MV4-11 cells) was 3.9 nM. For the same compound, the Papp A→B at 2 h, 10 μM [2] was 362 nm/s, the efflux ratio at 2 h, 10 μM [2] was 0.64 and the microsomal CLint at 10 μM [3] was 2.5 µL/min/mg.
In the case of `COCCn1cc(-c2ccc(-c3cnc(N)c4ncc(C(=O)NCC5CC5)cc34)cc2)cn1` [Compound 3.45, 8-amino-N-(cyclopropylmethyl)-5-(4-(1-(2-methoxyethyl)-1H-pyrazole-4-yl)phenyl)-1,7-naphthyridine-3-carboxamide], the CC50 at 72 h [1] is reported as 17400 nM, the IC50 (KG-1 cells) is reported as 0.1 nM and the IC50 (MV4-11 cells) is reported as 3.4 nM. It also gave a Papp A→B at 2 h, 10 μM [2] of 345 nm/s, an efflux ratio at 2 h, 10 μM [2] of 0.37 and a microsomal CLint at 10 μM [3] of 1.1 µL/min/mg.
Work on `CN(C)C(=O)Cn1cc(-c2ccc(-c3cnc(N)c4ncc(C(=O)N5CCC5)cc34)cc2)cn1` [Compound 3.52, 2-(4-(4-(8-amino-3-(azetidine-1-carbonyl)-1,7-naphthyridine-5-yl)phenyl)-1H-pyrazole-1-yl)-N,N-dimethylacetamide] yielded a CC50 at 72 h [1] of over 100000 nM, an IC50 (KG-1 cells) of 1.2 nM and an IC50 (MV4-11 cells) of 0.9 nM. The Papp A→B at 2 h, 10 μM [2] was 187 nm/s, the efflux ratio at 2 h, 10 μM [2] was 1.66 and the microsomal CLint at 10 μM [3] was 2.4 µL/min/mg.
